Residues, ends and D or L forms follow the SMILES beside them. *: point of attachment. Cbz = O=C(OCc1ccccc1)*
B1: Sam68 (Src-associated-in-mitosis-of-68kDa), endogenous, in WT mouse primary hepatocytes (other, UniProt Q60749 1-443, looked up)
chain: MQRRDDPASRLTRSSGRSCSKDPSGAHPSVRLTPSRPSPLPHRPRGGGGGPRGGARASPATQPPPLLPPSTPGPDATVVGSAPTPLLPPSATAAVKMEPENKYLPELMAEKDSLDPSFTHAMQLLSVEIEKIQKGESKKDDEENYLDLFSHKNMKLKERVLIPVKQYPKFNFVGKILGPQGNTIKRLQEETGAKISVLGKGSMRDKAKEEELRKGGDPKYAHLNMDLHVFIEVFGPPCEAYALMAHAMEEVKKFLVPDMMDDICQEQFLELSYLNGVPEPSRGRGVSVRGRGAAPPPPPVPRGRGVGPPRGALVRGTPVRGSITRGATVTRGVPPPPTVRGAPTPRARTAGIQRIPLPPTPAPETYEDYGYDDTYAEQSYEGYEGYYSQSQGESEYYDYGHGELQDSYEAYGQDDWNGTRPSLKAPPARPVKGAYREHPYGRY
notes: Endogenous protein co-immunoprecipitated from mouse primary hepatocytes; also called KHDRBS1

What was measured:
CRTC2 = CRTC2 protein levels in primary hepatocytes treated with proteasome or autophagy inhibitors (Western blot); type: cell-based, mouse; conditions: up to 16 h (MG132 20 μM, BZM 100 nM) or up to 8 h (bafilomycin 100 nM)
Method: FIGS. 7A-7J show Sam68 binds CRTC2 and inhibits CRTC2 ubiquitination and proteosomal degradation. In FIG. 7A, WT and Sam68^−/− mice were treated with glucagon (30 μg/kg) or PBS for 10 min; then, nuclear and cytoplasmic proteins were isolated from the liver tissue, and Sam68 protein expression was evaluated via Western blot. In FIG. 7B, CRTC2 was immunoprecipitated from WT and Sam68^−/− primary hepatocytes, and then CRTC2, Sam68, and CREB protein was detected in the precipitates via immunoblot. In FIG. 7C, 293T cells were co-transfected with plasmids coding for HA-tagged Sam68 and Flag-tagged CRTC2; 48 h later, CRTC2 was immunoprecipitated from the cells with anti-Flag, and Sam68 was detected in the precipitates by immunoblotting with anti-HA. In FIG. 7D, 293T cells were co-transfected with plasmids coding for Flag-tagged CRTC2 and HA-tagged WT Sam68 or HA-tagged mutations of Sam68 lacking the N-terminal domain (ΔN), the CK domain (ΔCK), proline motifs 3 and 4 (ΔP3-P4), or the C-terminal domain (ΔC); 48 h later, Sam68 and the Sam68 mutants were immunoprecipitated with anti-HA, and CRTC2 was detected in the precipitates by immunoblotting with anti-Flag. […] P62/SQSTM1 and LC3BI/II protein levels were also evaluated to indicate autophagic activity. […]

[1] = target: T1, CRTC2 (CREB-regulated transcriptional coactivator 2), endogenous, in WT mouse primary hepatocytes (mouse, UniProt Q3U182 2-692); assay: co-IP from mouse primary hepatocytes (FIG. 7B)
T1 construct: Endogenous protein immunoprecipitated with the CRTC2 antibody (sc-271912); also called endogenous CRTC2
T1 sequence (looked up): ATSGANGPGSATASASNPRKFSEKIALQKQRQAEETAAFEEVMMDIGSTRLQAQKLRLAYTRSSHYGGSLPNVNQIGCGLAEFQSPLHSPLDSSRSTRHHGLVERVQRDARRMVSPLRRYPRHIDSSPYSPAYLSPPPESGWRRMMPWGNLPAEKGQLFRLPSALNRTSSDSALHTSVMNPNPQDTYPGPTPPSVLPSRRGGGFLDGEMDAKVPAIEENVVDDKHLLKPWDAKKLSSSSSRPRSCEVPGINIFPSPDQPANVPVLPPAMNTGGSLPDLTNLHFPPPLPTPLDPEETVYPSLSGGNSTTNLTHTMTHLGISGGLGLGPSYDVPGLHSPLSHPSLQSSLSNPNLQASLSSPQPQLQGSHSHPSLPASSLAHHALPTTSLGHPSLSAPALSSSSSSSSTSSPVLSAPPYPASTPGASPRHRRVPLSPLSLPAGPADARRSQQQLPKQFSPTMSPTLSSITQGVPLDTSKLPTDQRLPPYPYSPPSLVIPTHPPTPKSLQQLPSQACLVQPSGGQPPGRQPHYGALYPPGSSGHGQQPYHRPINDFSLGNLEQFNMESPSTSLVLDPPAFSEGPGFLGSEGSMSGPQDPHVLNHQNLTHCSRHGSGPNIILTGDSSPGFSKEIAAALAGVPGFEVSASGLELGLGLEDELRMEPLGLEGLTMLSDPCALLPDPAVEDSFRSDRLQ
Method: In FIG. 7A, WT and Sam68^{-/-} mice were treated with glucagon (30 μg/kg) or PBS for 10 min; then, nuclear and cytoplasmic proteins were isolated from the liver tissue, and Sam68 protein expression was evaluated via Western blot. In FIG. 7B, CRTC2 was immunoprecipitated from WT and Sam68^{-/-} primary hepatocytes, and then CRTC2, Sam68, and CREB protein was detected in the precipitates via immunoblot. […] In FIG. 7E, WT and Sam68^{-/-} primary hepatocytes were treated with cycloheximide (100 μM) for 0-8 h to block new protein synthesis; then, CRTC2 protein levels were evaluated by Western blot, quantified via Image J software, normalized to β-actin levels, and reported as the proportion of the amount present at 0 h. WT and Sam68^{-/-} primary hepatocytes were treated with cycloheximide and (FIG. 7E) MG132 (20 μM), (FIG. 7F) BZM (100 nM), or (FIG. 7G) bafilomycin (100 nM) for 0-16 (MG132, BZM) or 0-8 (bafilomycin) and CRTC2 protein levels were evaluated by Western blot, quantified via Image J software, normalized to β-actin levels, and reported as the proportion of the amount present in WT cells at 0 h. P62/SQSTM1 and LC3BI/II protein levels were also evaluated to indicate autophagic activity. […]

Row | Molecule | CRTC2 protein levels in Sam68−/− hepatocytes during treatment (CRTC2) | binding result [1]
1 | CC(C)C[C@@H](C=O)NC(=O)[C@H](CC(C)C)NC(=O)[C@H](CC(C)C)NC(=O)OCc1ccccc1 [MG132] (Cbz-Leu-Leu-Leu-aldehyde) | approximately doubled | 
2 | bafilomycin | unchanged | 
3 | B1 |  | binds

Reference: patent US20220119511A1, “COMPOSITIONS AND METHODS FOR TREATMENT OF DIABETES, OBESITY, HYPER-CHOLESTEROLEMIA, AND ATHEROSCLEROSIS BY INHIBITION OF SAM68” (The UAB Research Foundation, priority 2020, published 2022)
